# Experimental data reported in patent publication US9487488B2, “Sulfonamide compound” (MITSUBISHI TANABE PHARMA CORPORATION, priority 2012, dated 2016).
# Target: human TRPM8 (Homo sapiens (Human), UniProt Q7Z2W7)
# Assay: TRPM8 inhibition assay (menthol-induced calcium influx, FDSS)
# Assay type: cell-based
# Conditions: HEK293 cells stably expressing human TRPM8; 100 μmol/L menthol; Fura-2AM calcium signal; read-out: TRPM8 Blocking Test (IC50/nmol/L)
# Protocol: The functional activity of a test compound was determined by measuring change in intracellular calcium concentration using a calcium sensitive fluorescent dye. The change in fluorescent signal was measured by the cell imaging technology by Hamamatsu Photonics's Functional Drug Screening System (FDSS).
# HEK293 cells stably expressing human TRPM8 were grown in a flask. On assay day, the culture medium was removed from the flask, and cells were washed with phosphate-buffered saline (PBS) and harvested with PBS containing 2 mmol/L of ethylenediaminetetraacetic acid disodium salt (EDTA-2Na). […] Subsequently, suspended 20,000 to 50,000 cells per well were incubated with a test compound (at varying concentrations) in each well at 37° C. for 20 minutes. Change in intracellular calcium concentration evoked by 100 μmol/L of menthol was measured for 2 minutes using FDSS. […] The concentration-response curve was generated using the average of quadruplicate wells for each data point.
# Chain of human TRPM8 (Q7Z2W7 whole entry): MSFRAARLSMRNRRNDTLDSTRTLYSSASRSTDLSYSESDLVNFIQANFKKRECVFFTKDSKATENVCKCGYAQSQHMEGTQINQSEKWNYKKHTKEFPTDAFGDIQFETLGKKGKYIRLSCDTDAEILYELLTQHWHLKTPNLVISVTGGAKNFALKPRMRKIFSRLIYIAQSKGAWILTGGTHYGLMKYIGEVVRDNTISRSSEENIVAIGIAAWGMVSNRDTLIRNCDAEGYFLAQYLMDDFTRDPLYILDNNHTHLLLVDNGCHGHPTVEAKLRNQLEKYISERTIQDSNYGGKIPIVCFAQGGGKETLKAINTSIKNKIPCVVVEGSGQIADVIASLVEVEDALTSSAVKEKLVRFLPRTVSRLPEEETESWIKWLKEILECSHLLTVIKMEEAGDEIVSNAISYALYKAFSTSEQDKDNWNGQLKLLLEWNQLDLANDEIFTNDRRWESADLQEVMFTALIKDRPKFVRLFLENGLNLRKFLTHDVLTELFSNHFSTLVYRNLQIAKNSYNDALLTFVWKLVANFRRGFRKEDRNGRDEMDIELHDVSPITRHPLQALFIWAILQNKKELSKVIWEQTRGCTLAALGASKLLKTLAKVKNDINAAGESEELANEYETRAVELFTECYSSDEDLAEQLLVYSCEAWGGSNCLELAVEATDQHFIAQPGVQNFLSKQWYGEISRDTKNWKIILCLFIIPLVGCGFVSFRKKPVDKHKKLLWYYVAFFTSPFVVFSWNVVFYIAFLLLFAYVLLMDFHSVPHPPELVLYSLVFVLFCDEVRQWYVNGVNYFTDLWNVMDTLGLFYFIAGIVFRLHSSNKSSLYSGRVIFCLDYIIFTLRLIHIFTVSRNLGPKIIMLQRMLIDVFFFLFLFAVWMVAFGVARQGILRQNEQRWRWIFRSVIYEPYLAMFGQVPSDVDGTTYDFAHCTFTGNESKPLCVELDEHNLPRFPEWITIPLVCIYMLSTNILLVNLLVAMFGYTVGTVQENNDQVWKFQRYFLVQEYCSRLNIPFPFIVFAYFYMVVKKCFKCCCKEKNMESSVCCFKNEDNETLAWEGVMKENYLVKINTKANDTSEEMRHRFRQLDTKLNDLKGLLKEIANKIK
row,Compound,IC50
1,"Cc1cc(S(=O)(=O)N(Cc2ccc(OC(F)(F)F)cc2)c2nc(C3CC3)c3ccccc3c2C)ccc1C(=O)O [Example 40, 4-({(1-cyclopropyl-4-methylisoquinolin-3-yl)[4-(trifluoromethoxy)benzyl]amino}sulfonyl)-2-methylbenzoic acid]",6.5 nmol/L
2,O=c1[nH]c(-c2ccc(S(=O)(=O)N(Cc3ccc(OC(F)(F)F)cc3)c3ncc4ccccc4c3C3CC3)nc2)no1 [Example 35],9.6 nmol/L
3,O=C(O)c1ccc(S(=O)(=O)N(Cc2ccc(OC(F)(F)F)cc2)c2ncc3ccccc3c2C2CC2)cc1Br [Example 48],6.3 nmol/L
4,O=C(O)c1ccc(S(=O)(=O)N(Cc2ccc(OC(F)(F)F)cc2)c2ncc3ccccc3c2C2CC2)cc1N1CCCCC1 [Example 59],10.3 nmol/L
5,CN(C)c1cc(S(=O)(=O)N(Cc2ccc(OC(F)(F)F)cc2)c2ncc3ccccc3c2C2CC2)ccc1C(=O)O [Example 45],2.9 nmol/L
6,"CS(=O)(=O)NCc1ccc(S(=O)(=O)N(Cc2ccc(OC(F)(F)F)cc2)c2ncc3ccccc3c2C2CC2)cc1 [Example 11, N-(4-cyclopropylisoquinolin-3-yl)-4-{[(methylsulfonyl)amino]methyl}-N-[4-(trifluoromethoxy)benzyl]benzenesulfonamide]",29.5 nmol/L
7,CC(C)c1cc(S(=O)(=O)N(Cc2ccc(OC(F)(F)F)cc2)c2ncc3ccccc3c2C(F)(F)F)ccc1C(=O)O [Example 56],6.6 nmol/L
8,O=S(=O)(c1ccc(-c2ncn[nH]2)cc1)N(Cc1ccc(OC(F)(F)F)cc1)c1ncc2ccccc2c1C(F)(F)F [Example 20],3.2 nmol/L

# Stronger by IC50, values ahead:
row,IC50,Compound
1,1.5 nmol/L,Cc1cc(S(=O)(=O)N(Cc2ccc(OC(F)(F)F)cc2)c2ncc3ccccc3c2C2CC2)cc(F)c1C(=O)O [Example 42]
2,2.2 nmol/L,Cc1n[nH]c(-c2ccc(S(=O)(=O)N(Cc3ccc(OC(F)(F)F)cc3)c3ncc4ccccc4c3C(F)(F)F)cn2)n1 [Example 29]
3,1.7 nmol/L,"O=S(=O)(c1ccc(-c2ncn[nH]2)nc1)N(Cc1ccc(OC(F)(F)F)cc1)c1ncc2ccccc2c1C1CC1 [Example 6, N-(4-cyclopropylisoquinolin-3-yl)-6-(1H-1,2,4-triazol-5-yl)-N-[4-(trifluoromethoxy)benzyl]pyridine-3-sulfonamide]"
4,2.7 nmol/L,Cc1c(N(Cc2ccc(OC(F)(F)F)cc2)S(=O)(=O)c2ccc(-c3noc(=O)[nH]3)cc2)nc(C2CC2)c2ccccc12 [Example 32]
5,1.1 nmol/L,"O=c1[nH]c(-c2ccc(S(=O)(=O)N(Cc3ccc(OC(F)(F)F)cc3)c3ncc4ccccc4c3C3CC3)cn2)no1 [Example 9, N-(4-cyclopropylisoquinolin-3-yl)-6-(5-oxo-4,5-dihydro-1,2,4-oxadiazol-3-yl)-N-[4-(trifluoromethoxy)benzyl]pyridine-3-sulfonamide]"
